Test results: US7777033B2, “Monomer with anti-microbial character, polymer using the same, and manufacturing method thereof” (Micro Science Tech Co., Ltd., priority 2005, dated 2010)

Experiments:
[1] = Light stability test (colour change over 3 months); format: physicochemical; conditions: for Discoloration: installed in the place where light was shut off
From the text: The antimicrobial monomers manufactured in Examples 9 and 10 and the antimicrobial acrylic copolymers manufactured in Examples 17 to 23 were used as samples. 3 g of each sample were respectively put in lucid glass test tubes, which were then placed under a direct ray of light. Also, according to the same method, the samples were collected in lucid glass test tubes which were then sealed with aluminum foil and installed in a place where indoor light was shut off.

E. coli (KCTC 1682) = assay: Strain reduction rate determination (shake flask method); format: cell-based; conditions: for Right After Inoculation (number of bacteria): 5 minutes after inoculation, 0.1 g powder or 2 ml stock solution; for After 24 hours (number of bacteria): 24 hours incubation with agitation; for Strain Reduction Rate: vs control after 24 hours
Description: (§1) The antimicrobial test was conducted by strain reduction rate determination (shake flask method). As the samples, 0.1 g of each of the compounds of Examples 9, 13, 15, and 18 to 23 was used in the form of powder, and in the case of Examples 28 to 31, 2 ml of their stock solution was used. The buffer solutions used in the antibacterial test were those prepared by dissolving each of 28.39 g of […] and 23.99 g of NaH2PO4 in 1000 ml of purified water, blending them in the volume of 72 ml and 28 ml respectively, adding 5 g of NaCl thereto, and then pouring purified water thereinto to adjust their total volume to 1000 ml. As the control, the same bacterial strains, to which no samples were added, were used. The samples were mixed with bacterial strain inocula (5.0×105), which were then incubated while agitating for 24 hours and then incubated on agar media. The reduction rate of strain number was determined by the following Equation 1. (Reduction Rate %)={(A−B)/A}×100 [Equation 1]
(§2) A: Number of Bacteria in Control after 24 Hours
(§3) B: Number of Bacteria in Sample after 24 Hours
(§4) In Table 6 above, “right after inoculation” refers to after 5 minutes from the time the bacterial strains were inoculated.

S. aureus (KCTC 1621) = assay: as above; format: cell-based; conditions: for Right After Inoculation (number of bacteria): 5 minutes after inoculation, 0.1 g powder or 2 ml stock solution; for After 24 hours (number of bacteria): 24 hours incubation with agitation; for Strain Reduction Rate: vs control after 24 hours
Description: as §1, §2, §3, §4

| Colour, Four Weeks Later ([1]; Direct Ray of Light) | Colour, Initial ([1]; Direct Ray of Light) | Colour, Ten Weeks Later ([1]; Direct Ray of Light) | Colour, Twelve Weeks Later ([1]; Direct Ray of Light) | Colour, Two Weeks Later ([1]; Direct Ray of Light) | Colour, Eight Weeks Later ([1]; Light Shut Off) | Colour, Four Weeks Later ([1]; Light Shut Off) | Colour, Initial ([1]; Light Shut Off) | Colour, Six Weeks Later ([1]; Light Shut Off) | Colour, Ten Weeks Later ([1]; Light Shut Off) | Colour, Twelve Weeks Later ([1]; Light Shut Off) | Colour, Two Weeks Later ([1]; Light Shut Off) | Discoloration [1] | SMILES | Right After Inoculation (number of bacteria) (E. coli (KCTC 1682)) | After 24 hours (number of bacteria) (E. coli (KCTC 1682)) | Strain Reduction Rate (E. coli (KCTC 1682)) | Right After Inoculation (number of bacteria) (S. aureus (KCTC 1621)) | After 24 hours (number of bacteria) (S. aureus (KCTC 1621)) | Strain Reduction Rate (S. aureus (KCTC 1621)) |
| --- | --- | --- | --- | --- | --- | --- | --- | --- | --- | --- | --- | --- | --- | --- | --- | --- | --- | --- | --- |
| orange | white | brown | brown | yellow | white | white | white | white | white | white | white | not discolored | C=C(C)C(=O)OCC(O)CN1CCN(c2cc3c(cc2F)c(=O)c(C(=O)O)cn3C2CC2)CC1 (centres unmarked) [Example 9, 1-cyclopropyl-6-fluoro-1,4-dihydro-7-[4-(2-hydroxy-6-methyl-4-oxa-5-oxo-6-heptenyl)-1-piperazinyl]-4-oxo-3-quinoline carboxylic acid] | not detected | not detected | 100% | not detected | not detected | 100% |
| orange | white | brown | brown | yellow | white | white | white | white | white | white | white | not discolored | C=C(C)C(=O)OCC(O)CN1CCN(c2cc3c(cc2F)c(=O)c(C(=O)O)cn3CC)CC1 (centres unmarked) [Example 10, 1-ethyl-6-fluoro-1,4-dihydro-7-[4-(2-hydroxy-6-methyl-4-oxa-5-oxo-6-heptenyl)-1-piperazinyl]-4-oxo-3-quinoline carboxylic acid] | – | – | – | – | – | – |
| – | – | – | – | – | – | – | – | – | – | – | – | – | C=C(C)C(=O)N1CCN(c2cc3c(cc2F)c(=O)c(C(=O)O)cn3C2CC2)CC1 [Example 13, 1-cyclopropyl-6-fluoro-1,4-dihydro-7-[4-(2-methyl-1-oxo-2-propenyl)-1-piperazinyl]-4-oxo-3-quinoline carboxylic acid] | not detected | not detected | 100% | not detected | not detected | 100% |
